In paper PMC11941218, “Juglone-Bearing Thiopyrano[2,3-d]thiazoles Induce Apoptosis in Colorectal Adenocarcinoma Cells” (Cells, 2025):

Assays:
[1] = test system: HT-29 colorectal adenocarcinoma cells; experiment: MTT assay; format: cell-based; conditions: Homo sapiens
Description: (§1) DLD-1, HaCaT, and Balb/c 3T3 cells were maintained in DMEM, while HT-29 cells were grown in McCoy’s 5A medium with 10% FBS and 1% penicillin/streptomycin. All cell lines were incubated at 37 °C in a humidified atmosphere with 5% CO2. After detaching the cells with trypsin, they were quantified using a Scepter 3.0 automated cell counter (Millipore, Burlington, MA, USA).
(§2) The metabolic activity of cells exposed to the tested derivatives, doxorubicin, and DMSO, was assessed using an MTT assay according to the manufacturer’s protocol (Sigma-Aldrich, St. Louis, MO, USA). Adherent cells were seeded into 96-well plates (5000–10,000 cells in 100 µL of growth medium per well) and allowed to adhere overnight before treatment. For lymphocytes, activation with phytohemagglutinin-L (1 µg/mL) was performed for 24 h, after which they were seeded in 96-well plates at a density of 100,000 cells/well in RPMI-1640 medium supplemented with 20% FBS. The test substances, including Les-6547, Les-6557, and doxorubicin, were added to 100 µL of culture medium to achieve final concentrations of 0 µM, 0.1 µM, 1 µM, 2.5 µM, 10 µM, and 100 µM for all compounds, and the cells were further incubated for 24, 48, or 72 h. DMSO-treated cells served as the control. Then, 20 µL of MTT solution (5 mg/mL) was added and incubated for 2–4 h to allow formazan crystal formation. The formazan crystals were then solubilized by adding DMSO. The absorbance of formazan was measured at 570 nm using a ThermoScientific Evolution 201 UV-VIS spectrophotometer (ThermoFisher Scientific, Waltham, MA, USA). The control condition with 0.5% DMSO was considered 100% viability. The IC50 values for the compounds were determined using GraphPad Prism 8 and 9 software (GraphPad Software, Boston, MA, USA).

[2] = test system: HaCaT (human keratinocytes); experiment: MTT assay; format: cell-based; conditions: 72 h, M ± SD, n = 3
Description: as §1, §2

[3] = test system: DLD-1 colorectal adenocarcinoma cells; experiment: [^3H]-thymidine incorporation assay (DNA biosynthesis); format: cell-based; conditions: Homo sapiens; DLD-1, 24 h, M ± SD, n = 3
Description: (§3) The anti-proliferative potential of Les-6547 and Les-6557 was analyzed using a clonogenic assay and incorporation of radioactive [^3H]-thymidine into the DNA of colorectal adenocarcinoma HT-29 and DLD-1 cell lines after 24 h of incubation with various concentrations of the tested agents.
(§4) Next, we examined the effects of the tested compounds on the proliferative activity of human colorectal adenocarcinoma cells by assessing their ability to influence DNA biosynthesis using the thymidine incorporation assay (Figure 6, Table 8). Les-6547 decreased DNA biosynthesis in DLD-1 cells to 50% at a concentration of 2.19 ± 0.39 µM.

[4] = test system: HT-29 colorectal adenocarcinoma cells; experiment: as above; format: cell-based; conditions: Homo sapiens; HT-29, 24 h, M ± SD, n = 3
Description: as §3, §4

[5] = test system: HT-29 colorectal adenocarcinoma cells; experiment: Apoptosis assay, FITC-Annexin V/propidium iodide flow cytometry; format: cell-based, human; conditions: HT-29, 24 h; Les-6547 5 μM, Les-6557 10 μM
Description: The pro-apoptotic effects of the tested compounds were assessed using the FITC Annexin V Apoptosis Detection Kit II in conjunction with a BD FACSCanto II flow cytometer (BD Biosciences, San Jose, CA, USA). The experimental procedure adhered to the manufacturer’s instructions and previously established protocols.
Initially, HT-29 cells were seeded in 6-well plates at a density of 300,000 cells per well in 2 mL of culture medium and incubated overnight to allow adherence. Subsequently, the cells were treated with Les-6547 (5 µM) and Les-6557 (10 µM) for 24 h. After exposure to the compounds, the cells were rinsed twice with cold PBS and suspended in the binding buffer provided in the kit. FITC Annexin V and propidium iodide (PI) were added to the 100 µL cell suspension, followed by 15-min incubation at room temperature, shielded from light.
After the incubation, 300 µL of binding buffer was added to each sample, and analysis was performed using the flow cytometer, with 10,000 events recorded per sample. Data were processed using FACSDiva software (version 6.1.3, BD Biosciences, San Jose, CA, USA). Calibration of the instrument was ensured using a BD Cytometer Setup and Tracking Beads (BD Biosciences, San Diego, CA, USA).

[6] = test system: HT-29 colorectal adenocarcinoma cells; experiment: Intracellular total ROS activity assay (flow cytometry); format: cell-based, human; conditions: HT-29, 24 h; control 3.8%
Description: Total reactive oxygen species (ROS) activity was assessed using an Intracellular Total ROS Activity Assay Kit. Following 24 h incubation with studied derivatives, HT-29 cells were prepared for analysis with the flow cytometer according to the protocol detailed in the literature. The cells were washed twice with cold PBS, followed by the addition of the assay buffer provided in the kit. The cells, at a concentration of 1 × 10⁶ cells/mL, were then exposed to 10 µL of Total ROS Green reagent and incubated for one hour at 37 °C in a CO2 incubator. After the incubation period, the cells were rinsed with the assay buffer. Finally, the cells were resuspended in 500 µL of assay buffer and analyzed using a BD FACSCanto II flow cytometer in conjunction with FACSDiva 6.1.3 software (both BD Biosciences Systems, San Jose, CA, USA). The BD Cytometer Setup and Tracking Beads (BD Biosciences, San Diego, CA, USA) were used for calibration.

[7] = test system: HT-29 colorectal adenocarcinoma cells; experiment: Cell cycle analysis (PI, flow cytometry); format: cell-based, human; conditions: HT-29, 24 h; Les-6547 5 μM, Les-6557 10 μM
Description: Cell cycle analysis of HT-29 cells treated with Les-6547 (5 µM) and Les-6557 (10 µM) for 24 h was conducted utilizing a FACSCanto II flow cytometer. Following the incubation period, the cells were detached using trypsin, collected, and fixed in cold ethanol (70%) before being stored at −20 °C for up to three days. Cells were then processed for flow cytometry analysis as previously described. Fixed cells were washed with cold PBS and centrifuged at 2000 rpm for 10 min, and the supernatant was discarded. The cell pellet was resuspended in PBS with 50 μg/mL DNase-free RNase A Solution and stained with 100 μg/mL PI for 30 min at 37 °C in the dark. After washing, the cells were resuspended in PBS. Cell cycle distribution was analyzed using a BD FACSCanto II flow cytometer (10,000 events) and FACSDiva 6.1.3 software (both BD Biosciences Systems, San Jose, CA, USA), followed by analysis with FCS Express 7 software (De Novo Software, Pasadena, CA, USA). The system was calibrated using a BD Cytometer Setup and Tracking Beads (BD Biosciences, San Diego, CA, USA).

[8] = HT-29, MTT, 24, 48 and 72 h, read-out: IC50 (range over incubation times)
[9] = HT-29, MTT, 24 h, M ± SD, n = 3, read-out: IC50
[10] = HT-29, MTT, 48 h, M ± SD, n = 3, read-out: IC50
[11] = HT-29, MTT, 72 h, M ± SD, n = 3, read-out: IC50

SMILES: O=C1C2=C(C(=O)c3c(O)cccc31)C(c1cc(Cl)ccc1O)c1sc(=O)[nH]c1S2 (stereo not drawn) [Les-6547]
- IC50 [1, 8]: 4.29 to 5.72 µM
- IC50 [1, 9]: 5.72 ± 0.41 µM
- IC50 [1, 10]: 4.29 ± 0.5 µM
- IC50 [1, 11]: 4.44 ± 0.35 µM
- IC50 [2]: 89.64 ± 0.84 µM
- IC50 [3]: 2.19 ± 0.39 µM
- IC50 [4]: 2.21 ± 0.39 µM
- apoptotic cells (sum of early and late apoptotic cells) [5]: 36.2%
- increase of the number of ROS-positive cells compared with the control cells [6]: approximately 10 fold
- cells in G1 phase [7]: 25.4%
- cells in G2/M phase [7]: 39.9%
- cells in S phase [7]: 34.7%

SMILES: O=C1C2=C(C(=O)c3c(O)cccc31)C(c1ccc(Cl)cc1)c1sc(=O)[nH]c1S2 (stereo not drawn) [Les-6557]
- IC50 [1, 8]: 6.54 to 10.4 µM
- IC50 [1, 9]: 10.4 ± 0.23 µM
- IC50 [1, 10]: 6.54 ± 0.07 µM
- IC50 [1, 11]: 9.78 ± 0.03 µM
- IC50 [2]: 68.37 ± 0.57 µM
- IC50 [3]: 4.65 ± 0.02 µM
- IC50 [4]: 2.91 ± 0.38 µM
- apoptotic cells (sum of early and late apoptotic cells) [5]: 31.9%
- increase of the number of ROS-positive cells compared with the control cells [6]: approximately 10 fold
- cells in G1 phase [7]: 19.2%
- cells in G2/M phase [7]: 28.8%
- cells in S phase [7]: 51.3%
